Measured values taken from patent US20160356723A1, “Light-Up Probes Based On Fluorogens With Aggregation Induced Emission Characteristics For Cellular Imaging And Drug Screening” (NATIONAL UNIVERSITY OF SINGAPORE, priority 2014, published 2016).

Tests used:
U87-MG cells = test: Confocal imaging of intracellular thiols, U87-MG; format: cell-based, human; details: BSO increased from 25 to 100 μM
Method: To explore the capability of using TPE-SS-D5-cRGD as a specific bioprobe for monitoring intracellular thiol levels in cancer cells, the probe is incubated with U87-MG human glioblastoma and MCF-7 breast cancer cell lines. U87-MG cells with overexpressed integrin αvβ3 on cellular membrane was chosen as integrin-positive cancer cell, while breast cancer cell MCF-7 with a low level of integrin αvβ3 expression was used as the negative control. […] It should be noted that the probe could also be used for live cell imaging. To provide further evidence for thiol-induced disulfide bond cleavage as the trigger of fluorescence turn-on, the U87-MG cells were also pretreated with buthionine sulfoximine (BSO) before incubation with TPE-SS-D5-cRGD. BSO is an inhibitor of g-glutamylcysteine synthetase which can inhibit the cells from synthesizing GSH. The fluorescence of TPE-SS-D5-cRGD treated U87-MG cells decreases as the concentration of BSO increases from 25 to 100 μM.

[1] = In vitro cytotoxicity studies; format: cell-based

SMILES | fluorescence of TPE-SS-D5-cRGD treated cells after BSO pretreatment (U87-MG cells) | in vitro cytotoxicity [1]
CCCCS(=N)(=O)CCC(N)C(=O)O (centres unmarked) [BSO, buthionine sulfoximine] | decreases | –
N=C(N)NCCC[C@@H]1NC(=O)[C@H](CCCCNC(=O)[C@H](CC(=O)O)NC(=O)[C@H](CC(=O)O)NC(=O)[C@H](CC(=O)O)NC(=O)[C@H](CC(=O)O)NC(=O)[C@H](CC(=O)O)NC(=O)CCSSCCC(=O)NCc2ccc(C(=C(c3ccccc3)c3ccccc3)c3ccccc3)cc2)NC(=O)[C@@H](Cc2ccccc2)NC(=O)[C@H](CC(=O)O)NC(=O)CNC1=O [TPE-SS-D5-cRGD] | – | biocompatible
